Source: ChEMBL document CHEMBL2046323, “Synthesis, structure-activity relationship studies, and X-ray crystallographic analysis of arylsulfonamides as potent carbonic anhydrase inhibitors” (J Med Chem, 2012)

Key:
Carbonic anhydrase 9 = Carbonic anhydrase 9 (Homo sapiens, UniProt Q16790)
Carbonic anhydrase 2 = Carbonic anhydrase 2 (Homo sapiens, UniProt P00918)
Carbonic anhydrase 7 = Carbonic anhydrase 7 (Homo sapiens, UniProt P43166)
Carbonic anhydrase 1 = Carbonic anhydrase 1 (Homo sapiens, UniProt P00915)
Carbonic anhydrase 14 = Carbonic anhydrase 14 (Homo sapiens, UniProt Q9ULX7)
Sequence of Carbonic anhydrase 14 (Q9ULX7 whole entry): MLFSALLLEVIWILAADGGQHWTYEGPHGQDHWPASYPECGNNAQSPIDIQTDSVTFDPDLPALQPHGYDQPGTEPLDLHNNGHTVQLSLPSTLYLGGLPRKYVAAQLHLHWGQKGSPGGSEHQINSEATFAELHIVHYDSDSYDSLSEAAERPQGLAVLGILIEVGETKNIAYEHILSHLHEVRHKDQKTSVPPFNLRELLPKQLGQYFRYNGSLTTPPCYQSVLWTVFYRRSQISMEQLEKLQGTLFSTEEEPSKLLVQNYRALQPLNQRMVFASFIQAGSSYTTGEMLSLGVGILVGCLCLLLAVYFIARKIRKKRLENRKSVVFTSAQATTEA

Sequence of Carbonic anhydrase 7 (P43166 whole entry): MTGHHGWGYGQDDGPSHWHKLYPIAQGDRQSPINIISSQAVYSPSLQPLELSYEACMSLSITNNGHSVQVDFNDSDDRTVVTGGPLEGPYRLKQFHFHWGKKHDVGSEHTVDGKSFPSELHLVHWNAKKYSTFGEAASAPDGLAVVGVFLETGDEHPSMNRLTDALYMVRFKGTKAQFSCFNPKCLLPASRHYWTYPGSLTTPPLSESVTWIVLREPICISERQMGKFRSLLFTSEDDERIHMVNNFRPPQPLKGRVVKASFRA
Sequence of Carbonic anhydrase 1 (P00915 whole entry): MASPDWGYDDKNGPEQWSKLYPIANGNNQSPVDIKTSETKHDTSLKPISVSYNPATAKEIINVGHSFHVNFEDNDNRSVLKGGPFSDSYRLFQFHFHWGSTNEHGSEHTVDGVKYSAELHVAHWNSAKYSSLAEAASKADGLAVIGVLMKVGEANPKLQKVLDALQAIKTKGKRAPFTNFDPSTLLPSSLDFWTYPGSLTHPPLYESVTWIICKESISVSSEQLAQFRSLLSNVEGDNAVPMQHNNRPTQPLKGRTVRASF

Ki (Carbonic anhydrase 9) [nM] | SMILES | other results
76 | COc1cc2c(cc1OC)C(c1ccc(S(N)(=O)=O)cc1)N(S(N)(=O)=O)CC2 (configuration not stated) | –
9.2 | CCCOc1ccc2c(c1)CCNC2c1ccc(S(N)(=O)=O)cc1 (racemic) | –
3.8 | COc1ccc(CCNC(=O)c2ccc(S(N)(=O)=O)cc2)cc1OC | –
8.1 | CCOc1cccc(CCNC(=O)c2ccc(S(N)(=O)=O)cc2)c1 | –
210 | COc1cc2c(cc1OC)C(c1ccc(S(N)(=O)=O)cc1)=NCC2 | –
41.7 | NS(=O)(=O)c1ccc(C(=O)NCCc2cccc(O)c2)cc1 | –
7.9 | NS(=O)(=O)c1ccc(C2c3ccc(O)cc3CCN2S(N)(=O)=O)cc1 (configuration not stated) | –
6.5 | COc1cccc(CCNC(=O)c2ccc(S(N)(=O)=O)cc2)c1 | –
51.5 | NS(=O)(=O)c1ccc(C2=NCCc3cc(O)ccc32)cc1 | –
7.2 | CCOc1ccc2c(c1)CCN=C2c1ccc(S(N)(=O)=O)cc1 | Ki (Carbonic anhydrase 2): 87.5 nM; Ki (Carbonic anhydrase 7): 6.5 nM; Ki (Carbonic anhydrase 1): 1050 nM; Ki (Carbonic anhydrase 14): 17.9 nM
9.2 | CCOc1ccc2c(c1)CCNC2c1ccc(S(N)(=O)=O)cc1 (racemic) | –
18.3 | COc1ccc2c(c1)CCN=C2c1ccc(S(N)(=O)=O)cc1 | –
130 | COc1cc2c(cc1OC)C(c1ccc(S(N)(=O)=O)cc1)NCC2 (configuration not stated) | –
52.1 | CCOc1ccc2c(c1)CCN(S(N)(=O)=O)C2c1ccc(S(N)(=O)=O)cc1 (configuration not stated) | –
68.3 | NS(=O)(=O)c1ccc(C2NCCc3cc(O)ccc32)cc1 (configuration not stated) | –
6.5 | COc1ccc2c(c1)CCN(S(N)(=O)=O)C2c1ccc(S(N)(=O)=O)cc1 (configuration not stated) | –
16.1 | CCCOc1ccc2c(c1)CCN=C2c1ccc(S(N)(=O)=O)cc1 | Ki (Carbonic anhydrase 2): 8.8 nM; Ki (Carbonic anhydrase 7): 8 nM; Ki (Carbonic anhydrase 1): 83.1 nM; Ki (Carbonic anhydrase 14): 8.7 nM
15.4 | COc1ccc2c(c1)CCNC2c1ccc(S(N)(=O)=O)cc1 (racemic) | –

SMILES | Ki (Carbonic anhydrase 9) [nM] | other results
CCCOc1cccc(CCNC(=O)c2ccc(S(N)(=O)=O)cc2)c1 | 8.3 | –
